Patent publication US20240116985A1, “STAPLED PEPTIDES AND METHODS THEREOF” (priority 2020, published 2024)

Columns and labels:
[1] = target: T1, full-length beta-Catenin (Uniprot ID P35222) (Homo sapiens, UniProt P35222); assay: Fluorescence polarization IC50 (beta-catenin / 5FAM-TCF4 10-53 competition); assay type: binding; details: fluorescence polarization; read-out: beta-Catenin FP IC50
T1 construct: 10 nM full-length beta-Catenin (Uniprot ID P35222)
T1 sequence (P35222 1-781): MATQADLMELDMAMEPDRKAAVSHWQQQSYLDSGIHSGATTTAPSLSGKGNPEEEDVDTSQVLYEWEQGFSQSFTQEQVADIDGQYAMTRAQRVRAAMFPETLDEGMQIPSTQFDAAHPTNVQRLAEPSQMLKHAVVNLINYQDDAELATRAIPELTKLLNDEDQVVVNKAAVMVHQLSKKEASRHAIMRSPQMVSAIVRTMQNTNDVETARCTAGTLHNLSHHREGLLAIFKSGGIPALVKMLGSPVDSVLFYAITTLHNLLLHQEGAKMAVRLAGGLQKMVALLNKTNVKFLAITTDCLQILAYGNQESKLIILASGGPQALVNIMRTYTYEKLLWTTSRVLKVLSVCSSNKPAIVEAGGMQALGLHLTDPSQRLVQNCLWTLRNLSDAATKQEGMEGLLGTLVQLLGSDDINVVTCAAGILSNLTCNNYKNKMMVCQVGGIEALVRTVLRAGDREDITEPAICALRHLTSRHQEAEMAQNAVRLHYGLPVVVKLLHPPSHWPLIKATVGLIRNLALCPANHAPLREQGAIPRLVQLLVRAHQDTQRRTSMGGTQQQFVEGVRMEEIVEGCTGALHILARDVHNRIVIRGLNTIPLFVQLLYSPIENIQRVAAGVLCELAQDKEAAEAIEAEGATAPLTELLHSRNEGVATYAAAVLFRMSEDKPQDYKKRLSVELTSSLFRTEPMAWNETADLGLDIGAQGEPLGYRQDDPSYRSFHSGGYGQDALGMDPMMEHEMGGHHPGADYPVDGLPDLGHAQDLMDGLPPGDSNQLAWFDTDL

[2] = target: T2, beta-catenin/TCF4 engagement (Homo sapiens, UniProt P35222); assay: Nano-BRET target engagement assay (B-cat-Halo & TCF4-Luc in HEK293 cells); assay type: cell-based; details: absolute IC50; read-out: NanoBRET Abs IC50
T2 construct: expressed in transfected cells; host or cells: HEK293
T2 sequence (P35222 1-781): T1 sequence (P35222 1-781)

Row | SMILES | IC50 [1] [nM] | IC50 [2] [nM]
1 | CC(=O)N1CCC[C@]12CC=CCCCC1(CCCC=CCCCOC(=O)N3CC[C@@](C(=O)N[C@@H](Cc4ccccc4C(F)(F)F)C(=O)N[C@@H](Cc4csc5ccccc45)C(=O)N[C@@H](CCC(N)=O)C(N)=O)(C3)NC(=O)[C@H](CC(C)C)NC(=O)[C@H](Cc3ccccc3)NC(=O)[C@H](C)NC(=O)[C@H](C)NC(=O)[C@H](CN(CC(=O)O)CC(F)(F)F)NC(=O)[C@H](CC(=O)O)NC1=O)NC(=O)[C@H](CC(C)(C)C)NC(=O)[C@H](CC(=O)O)NC2=O (stereo partly drawn) [I-1704, Ac-PL3-Asp-Npg-B5-Asp-TfeGA-Ala-Ala-Phe-Leu-PyrS2-2F3MeF-BztA-Gln-NH2] | 37 | 5300
2 | CC(=O)N1CCC[C@]12CC=CCCCC1(CCCC=CCCCOC(=O)N3CC[C@@](C(=O)N[C@@H](Cc4ccsc4)C(=O)N[C@@H](Cc4csc5ccccc45)C(=O)N[C@@H](CC(N)=O)C(N)=O)(C3)NC(=O)[C@H](CC(C)C)NC(=O)[C@H](Cc3ccccc3)NC(=O)[C@H](C)NC(=O)[C@H](C)NC(=O)[C@H](CN(CC(=O)O)CC(F)(F)F)NC(=O)[C@H](CC(=O)O)NC1=O)NC(=O)[C@H](CC(C)(C)C)NC(=O)[C@H](CC(=O)O)NC2=O (stereo partly drawn) [I-1705, Ac-PL3-Asp-Npg-B5-Asp-TfeGA-Ala-Ala-Phe-Leu-PyrS2-3Thi-BztA-Asn-NH2] | 9 | 2900
3 | CC(=O)N1CCC[C@]12CCCCCCC1(CCCCCCCCOC(=O)N3CC[C@@](C(=O)N[C@@H](Cc4ccccc4)C(=O)N[C@@H](Cc4csc5ccccc45)C(=O)N[C@@H](CCC(N)=O)C(N)=O)(C3)NC(=O)[C@H](CC(C)C)NC(=O)[C@H](Cc3ccccc3)NC(=O)[C@H](C)NC(=O)[C@H](C)NC(=O)[C@H](CN(CC(=O)O)CC(F)(F)F)NC(=O)[C@H](CC(=O)O)NC1=O)NC(=O)[C@H](CC(C)(C)C)NC(=O)[C@H](CC(=O)O)NC2=O (stereo partly drawn) [I-1711, Ac-PL3-Asp-Npg-B5-Asp-TfeGA-Ala-Ala-Phe-Leu-PyrS2-Phe-BztA-Gln-NH2] | 232 | 33300
4 | CC(=O)N1CCC[C@]12CCCCCCC1(CCCCCCCCOC(=O)N3CC[C@@](C(=O)N[C@@H](CC4CCCC4)C(=O)N[C@@H](Cc4csc5ccccc45)C(=O)N[C@@H](CCC(N)=O)C(N)=O)(C3)NC(=O)[C@H](CC(C)C)NC(=O)[C@H](Cc3ccccc3)NC(=O)[C@H](C)NC(=O)[C@H](C)NC(=O)[C@H](CN(CC(=O)O)CC(F)(F)F)NC(=O)[C@H](CC(=O)O)NC1=O)NC(=O)[C@H](CC(C)(C)C)NC(=O)[C@H](CC(=O)O)NC2=O (stereo partly drawn) [I-1713, Ac-PL3-Asp-Npg-B5-Asp-TfeGA-Ala-Ala-Phe-Leu-PyrS2-CypA-BztA-Gln-NH2] | 498 | > 20000
5 | CC(=O)N1CCC[C@]12CCCCCCC1(CCCCCCCCOC(=O)N3CC[C@@](C(=O)N[C@@H](Cc4ccccc4C(F)(F)F)C(=O)N[C@@H](Cc4csc5ccccc45)C(=O)N[C@@H](CCC(N)=O)C(N)=O)(C3)NC(=O)[C@H](CC(C)C)NC(=O)[C@H](Cc3ccccc3)NC(=O)[C@H](C)NC(=O)[C@H](C)NC(=O)[C@H](CN(CC(=O)O)CC(F)(F)F)NC(=O)[C@H](CC(=O)O)NC1=O)NC(=O)[C@H](CC(C)(C)C)NC(=O)[C@H](CC(=O)O)NC2=O (stereo partly drawn) [I-1714, Ac-PL3-Asp-Npg-B5-Asp-TfeGA-Ala-Ala-Phe-Leu-PyrS2-2F3MeF-BztA-Gln-NH2] | 372 | 28600
6 | CC(=O)N1CCC[C@]12CC=CCCCC1(CCCC=CCCCOC(=O)N3CC[C@@](C(=O)N[C@@H](Cc4ccccc4Cl)C(=O)N[C@@H](Cc4csc5ccccc45)C(=O)N[C@@H](CCC(N)=O)C(N)=O)(C3)NC(=O)[C@H](CC(N)=O)NC(=O)[C@H](Cc3ccccc3)NC(=O)[C@H](C)NC(=O)[C@H](C)NC(=O)[C@H](CC(=O)O)NC(=O)[C@H](CC(=O)O)NC1=O)NC(=O)[C@H](CC(C)(C)C)NC(=O)[C@H](CC(=O)S)NC2=O (stereo partly drawn) [I-1721, Ac-PL3-AspSH-Npg-B5-Asp-Asp-Ala-Ala-Phe-Asn-PyrS2-2C1F-BztA-Gln-NH2] | 139 | > 20000
7 | CC(=O)N1CCC[C@]12CC=CCCCC1(CCCC=CCCCOC(=O)N3CC[C@@](C(=O)N[C@@H](Cc4ccccc4Cl)C(=O)N[C@@H](Cc4csc5ccccc45)C(=O)N[C@@H](CCC(N)=O)C(N)=O)(C3)NC(=O)[C@H](CC(N)=O)NC(=O)[C@H](Cc3ccccc3)NC(=O)[C@H](C)NC(=O)[C@H](C)NC(=O)[C@H](CC(=O)O)NC(=O)[C@H](CC(=O)O)NC1=O)NC(=O)[C@H](CC(C)(C)C)NC(=O)[C@H](CC(=O)S)NC2=O (stereo partly drawn) [I-1722, Ac-PL3-AspSH-Npg-B5-Asp-Asp-Ala-Ala-Phe-Asn-PyrS2-2C1F-BztA-Gln-NH2] | 135 | > 20000

Further molecules by falling IC50 [1], results first:

Row | IC50 [1] [nM] | IC50 [2] [nM] | SMILES
8 | 29 | 11900 | CC(=O)N1CCC[C@]12CC=CCCCC1(CCCC=CCCCOC(=O)N3CC[C@@](C(=O)N[C@@H](Cc4ccsc4)C(=O)N[C@@H](Cc4csc5ccccc45)C(=O)N[C@@H](Cc4cccc(C(N)=O)c4)C(N)=O)(C3)NC(=O)[C@H](CC(C)C)NC(=O)[C@H](Cc3ccccc3)NC(=O)[C@H](C)NC(=O)[C@H](C)NC(=O)[C@H](CN(CC(=O)O)CC(F)(F)F)NC(=O)[C@H](CC(=O)O)NC1=O)NC(=O)[C@H](CC(C)(C)C)NC(=O)[C@H](CC(=O)O)NC2=O (stereo partly drawn) [I-1708, Ac-PL3-Asp-Npg-B5-Asp-TfeGA-Ala-Ala-Phe-Leu-PyrS2-3Thi-BztA-3cbmf-NH2]
9 | 25 | 24800 | CC(=O)N1CCC[C@]12CC=CCCCC1(CCCC=CCCCOC(=O)N3CC[C@@](C(=O)N[C@@H](Cc4cccnc4)C(=O)N[C@@H](Cc4csc5ccccc45)C(=O)N[C@@H](CCC(N)=O)C(N)=O)(C3)NC(=O)[C@H](CC(C)C)NC(=O)[C@H](Cc3ccccc3)NC(=O)[C@H](C)NC(=O)[C@H](C)NC(=O)[C@H](CN(CC(=O)O)CC(F)(F)F)NC(=O)[C@H](CC(=O)O)NC1=O)NC(=O)[C@H](CC(C)(C)C)NC(=O)[C@H](CC(=O)O)NC2=O (stereo partly drawn) [I-1701, Ac-PL3-Asp-Npg-B5-Asp-TfeGA-Ala-Ala-Phe-Leu-PyrS2-3PyrA-BztA-Gln-NH2]
10 | 19 | 6100 | CC(=O)N1CCC[C@]12CC=CCCCC1(CCCC=CCCCOC(=O)N3CC[C@@](C(=O)N[C@@H](Cc4ccsc4)C(=O)N[C@@H](Cc4csc5ccccc45)C(=O)N[C@@H](Cc4ccccc4C(N)=O)C(N)=O)(C3)NC(=O)[C@H](CC(C)C)NC(=O)[C@H](Cc3ccccc3)NC(=O)[C@H](C)NC(=O)[C@H](C)NC(=O)[C@H](CN(CC(=O)O)CC(F)(F)F)NC(=O)[C@H](CC(=O)O)NC1=O)NC(=O)[C@H](CC(C)(C)C)NC(=O)[C@H](CC(=O)O)NC2=O (stereo partly drawn) [I-1707, Ac-PL3-Asp-Npg-B5-Asp-TfeGA-Ala-Ala-Phe-Leu-PyrS2-3Thi-BztA-2cbmf-NH2]
11 | 17 | 6900 | CC(=O)N1CCC[C@]12CC=CCCCC1(CCCC=CCCCOC(=O)N3CC[C@@](C(=O)N[C@@H](Cc4ccccc4C#N)C(=O)N[C@@H](Cc4csc5ccccc45)C(=O)N[C@@H](CCC(N)=O)C(N)=O)(C3)NC(=O)[C@H](CC(C)C)NC(=O)[C@H](Cc3ccccc3)NC(=O)[C@H](C)NC(=O)[C@H](C)NC(=O)[C@H](CN(CC(=O)O)CC(F)(F)F)NC(=O)[C@H](CC(=O)O)NC1=O)NC(=O)[C@H](CC(C)(C)C)NC(=O)[C@H](CC(=O)O)NC2=O (stereo partly drawn) [I-1702, Ac-PL3-Asp-Npg-B5-Asp-TfeGA-Ala-Ala-Phe-Leu-PyrS2-2CNF-BztA-Gln-NH2]
12 | 16 | 4800 | CC(=O)N1CCC[C@]12CC=CCCCC1(CCCC=CCCCOC(=O)N3CC[C@@](C(=O)N[C@@H](Cc4ccccc4)C(=O)N[C@@H](Cc4csc5ccccc45)C(=O)N[C@@H](CCC(N)=O)C(N)=O)(C3)NC(=O)[C@H](CC(C)C)NC(=O)[C@H](Cc3ccccc3)NC(=O)[C@H](C)NC(=O)[C@H](C)NC(=O)[C@H](CN(CC(=O)O)CC(F)(F)F)NC(=O)[C@H](CC(=O)O)NC1=O)NC(=O)[C@H](CC(C)(C)C)NC(=O)[C@H](CC(=O)O)NC2=O (stereo partly drawn) [I-1700, Ac-PL3-Asp-Npg-B5-Asp-TfeGA-Ala-Ala-Phe-Leu-PyrS2-Phe-BztA-Gln-NH2]
13 | 15 | 10000 | CC(=O)N1CCC[C@]12CC=CCCCC1(CCCC=CCCCOC(=O)N3CC[C@@](C(=O)N[C@@H](Cc4ccccc4C)C(=O)N[C@@H](Cc4csc5ccccc45)C(=O)N[C@@H](CCC(N)=O)C(N)=O)(C3)NC(=O)[C@H](CC(C)C)NC(=O)[C@H](Cc3ccccc3)NC(=O)[C@H](C)NC(=O)[C@H](C)NC(=O)[C@H](CN(CC(=O)O)CC(F)(F)F)NC(=O)[C@H](CC(=O)O)NC1=O)NC(=O)[C@H](CC(C)(C)C)NC(=O)[C@H](CC(=O)O)NC2=O (stereo partly drawn) [I-1725, Ac-PL3-Asp-Npg-B5-Asp-TfeGA-Ala-Ala-Phe-Leu-PyrS2-2MeF-BztA-Gln-NH2]
